Results published in patent US7118895B2, “Process for producing aglycon by using diglycosidase and flavor-improved food containing the aglycon and converting agent to be used in the process” (Amano Enzyme Inc., priority 2000, dated 2006).

Tested on: Crude diglycosidase
Experiment: Examination of pH in the conversion into isoflavone aglycons by diglycosidase using soybean materials
Type: biochemical, Penicillium multicolor IAM7153
Set-up: Decomposition efficiency of genistin family in soymilk / Decomposition efficiency of genistin family in defatted soybean / Decomposition efficiency of daidzin family in defatted soybean: concentration or dose not given beside the values
Conditions: for Decomposition efficiency of daidzin family in roasted soy flour: 55° C.
Procedure: A substrate solution of 450 μL was prepared by suspending 50 mg of each soybean material (roasted soy flour (manufactured by Fuji Shokuryo K.K.), soymilk (manufactured by Gitoh Shokuhin K.K.), defatted soybean (manufactured by Fuji Seiyu K.K.), concentrated soybean protein (manufactured by Fuji Seiyu K.K.)), and adjusting the pH to 2 to 11 with hydrochloric acid or sodium hydroxide. Each enzyme solution of pH 2–11 wherein diglycosidase activity of crude diglycosidase was adjusted to 1.88 AU/mL was added thereto in an amount of 50 μL and the whole was reacted at 55° C. at the total volume of 500 μL. To the reaction mixture was added 700 μL of ethanol after 0, 1, 3, and 6 hours of the reaction. After stirring and ultrasonication, the mixture was subjected to centrifugal separation at 15,000 rpm and 4° C. for 10 minutes. The supernatant was filtered through a filter and the existence of isoflavone glycosides and aglycon isoflavones contained in the reaction mixture was detected by HLPC (Tables 15 to 26).

[1] = pH6.6, heat treatment of enzyme: no, reaction time 0 h
[2] = pH6.6, heat treatment of enzyme: no, reaction time 1 h
[3] = pH6.6, heat treatment of enzyme: no, reaction time 3 h
[4] = pH6.6, heat treatment of enzyme: no, reaction time 6 h
[5] = pH6.6, heat treatment of enzyme: yes, reaction time 6 h

For `O=c1c(-c2ccc(O)cc2)coc2cc(O)ccc12` [daidzein], the “Decomposition efficiency of daidzin family in roasted soy flour” value (pH5, heat treatment of enzyme no, reaction time 0 h) was 3.5, the “Decomposition efficiency of daidzin family in roasted soy flour” value (pH5, heat treatment of enzyme no, reaction time 1 h) was 61.5 and the “Decomposition efficiency of daidzin family in roasted soy flour” value (pH5, heat treatment of enzyme no, reaction time 3 h) was 75.3. For the same compound, the “Decomposition efficiency of daidzin family in roasted soy flour” value (pH5, heat treatment of enzyme no, reaction time 6 h) was 84.8, the “Decomposition efficiency of daidzin family in roasted soy flour” value (pH5, heat treatment of enzyme yes, reaction time 6 h) was 4.4 and the “Decomposition efficiency of daidzin family in concentrated soybean protein” value (pH5.1, heat treatment of enzyme: no, reaction time 0 h) was 3.0%. For the same compound, the “Decomposition efficiency of daidzin family in concentrated soybean protein” value (pH5.1, heat treatment of enzyme: no, reaction time 1 h) was 56.6%, the “Decomposition efficiency of daidzin family in concentrated soybean protein” value (pH5.1, heat treatment of enzyme: no, reaction time 3 h) was 63.0% and the “Decomposition efficiency of daidzin family in concentrated soybean protein” value (pH5.1, heat treatment of enzyme: no, reaction time 6 h) was 68.8%. For the same compound, the “Decomposition efficiency of daidzin family in concentrated soybean protein” value (pH5.1, heat treatment of enzyme: yes, reaction time 6 h) was 3.2%, the “Decomposition efficiency of daidzin family in defatted soybean” value (pH5.4, heat treatment of enzyme: no, reaction time 0 h) was 15.7% and the “Decomposition efficiency of daidzin family in defatted soybean” value (pH5.4, heat treatment of enzyme: no, reaction time 1 h) was 55.8%. For the same compound, the “Decomposition efficiency of daidzin family in defatted soybean” value (pH5.4, heat treatment of enzyme: no, reaction time 3 h) was 58.5%, the “Decomposition efficiency of daidzin family in defatted soybean” value (pH5.4, heat treatment of enzyme: no, reaction time 6 h) was 63.1% and the “Decomposition efficiency of daidzin family in defatted soybean” value (pH5.4, heat treatment of enzyme: yes, reaction time 6 h) was 55.1%. For the same compound, the “Decomposition efficiency of daidzin family in soymilk” value (from here on “Decomposition efficiency … in soymilk”) (pH6.2, heat treatment of enzyme: no, reaction time 0 h) was 9.0%, the “Decomposition efficiency … in soymilk” value (pH6.2, heat treatment of enzyme: no, reaction time 1 h) was 45.9% and the “Decomposition efficiency … in soymilk” value (pH6.2, heat treatment of enzyme: no, reaction time 3 h) was 53.6%. The “Decomposition efficiency … in soymilk” value (pH6.2, heat treatment of enzyme: no, reaction time 6 h) was 58.1%, the “Decomposition efficiency … in soymilk” value (pH6.2, heat treatment of enzyme: yes, reaction time 6 h) was 9.7% and the “Decomposition efficiency of daidzin family in roasted soy flour” value (pH6.5, heat treatment of enzyme no, reaction time 0 h) was 3.4. The “Decomposition efficiency of daidzin family in roasted soy flour” value (pH6.5, heat treatment of enzyme no, reaction time 1 h) was 54.6, the “Decomposition efficiency of daidzin family in roasted soy flour” value (pH6.5, heat treatment of enzyme no, reaction time 3 h) was 60.8 and the “Decomposition efficiency of daidzin family in roasted soy flour” value (pH6.5, heat treatment of enzyme no, reaction time 6 h) was 65.6. The “Decomposition efficiency of daidzin family in roasted soy flour” value (pH6.5, heat treatment of enzyme yes, reaction time 6 h) was 4.7, the “Decomposition efficiency of daidzin family in concentrated soybean protein” value [1] was 3.0% and the “Decomposition efficiency of daidzin family in defatted soybean” value [1] was 13.2%. For the same compound, the “Decomposition efficiency of daidzin family in concentrated soybean protein” value [2] was 51.0%, the “Decomposition efficiency of daidzin family in defatted soybean” value [2] was 54.1% and the “Decomposition efficiency of daidzin family in concentrated soybean protein” value [3] was 57.1%. For the same compound, the “Decomposition efficiency of daidzin family in defatted soybean” value [3] was 56.0%, the “Decomposition efficiency of daidzin family in concentrated soybean protein” value [4] was 58.8% and the “Decomposition efficiency of daidzin family in defatted soybean” value [4] was 58.2%. The “Decomposition efficiency of daidzin family in concentrated soybean protein” value [5] was 3.2%, the “Decomposition efficiency of daidzin family in defatted soybean” value [5] was 49.5% and the “Decomposition efficiency … in soymilk” value (pH7.2, heat treatment of enzyme: no, reaction time 0 h) was 9.0%. The “Decomposition efficiency … in soymilk” value (pH7.2, heat treatment of enzyme: no, reaction time 1 h) was 43.6%, the “Decomposition efficiency … in soymilk” value (pH7.2, heat treatment of enzyme: no, reaction time 3 h) was 47.6% and the “Decomposition efficiency … in soymilk” value (pH7.2, heat treatment of enzyme: no, reaction time 6 h) was 51.8%. The “Decomposition efficiency … in soymilk” value (pH7.2, heat treatment of enzyme: yes, reaction time 6 h) was 10.2%, the “Decomposition efficiency of daidzin family in defatted soybean” value (pH7.8, heat treatment of enzyme: no, reaction time 0 h) was 13.3% and the “Decomposition efficiency of daidzin family in defatted soybean” value (pH7.8, heat treatment of enzyme: no, reaction time 1 h) was 43.1%. For the same compound, the “Decomposition efficiency of daidzin family in defatted soybean” value (pH7.8, heat treatment of enzyme: no, reaction time 3 h) was 48.4%, the “Decomposition efficiency of daidzin family in defatted soybean” value (pH7.8, heat treatment of enzyme: no, reaction time 6 h) was 51.9% and the “Decomposition efficiency of daidzin family in defatted soybean” value (pH7.8, heat treatment of enzyme: yes, reaction time 6 h) was 21.7%. The “Decomposition efficiency of daidzin family in roasted soy flour” value (pH8.5, heat treatment of enzyme no, reaction time 0 h) was 3.8, the “Decomposition efficiency of daidzin family in roasted soy flour” value (pH8.5, heat treatment of enzyme no, reaction time 1 h) was 36.9 and the “Decomposition efficiency of daidzin family in roasted soy flour” value (pH8.5, heat treatment of enzyme no, reaction time 3 h) was 46.4. For the same compound, the “Decomposition efficiency of daidzin family in roasted soy flour” value (pH8.5, heat treatment of enzyme no, reaction time 6 h) was 51.8, the “Decomposition efficiency of daidzin family in roasted soy flour” value (pH8.5, heat treatment of enzyme yes, reaction time 6 h) was 3.9 and the “Decomposition efficiency of daidzin family in concentrated soybean protein” value (pH8.6, heat treatment of enzyme: no, reaction time 0 h) was 3.2%. The “Decomposition efficiency of daidzin family in concentrated soybean protein” value (pH8.6, heat treatment of enzyme: no, reaction time 1 h) was 9.9%, the “Decomposition efficiency of daidzin family in concentrated soybean protein” value (pH8.6, heat treatment of enzyme: no, reaction time 3 h) was 15.9% and the “Decomposition efficiency of daidzin family in concentrated soybean protein” value (pH8.6, heat treatment of enzyme: no, reaction time 6 h) was 27.4%. The “Decomposition efficiency of daidzin family in concentrated soybean protein” value (pH8.6, heat treatment of enzyme: yes, reaction time 6 h) was 3.2%, the “Decomposition efficiency … in soymilk” value (pH11.6, heat treatment of enzyme: no, reaction time 0 h) was 8.7% and the “Decomposition efficiency … in soymilk” value (pH11.6, heat treatment of enzyme: no, reaction time 1 h) was 43.6%. For the same compound, the “Decomposition efficiency … in soymilk” value (pH11.6, heat treatment of enzyme: no, reaction time 3 h) was 49.6%, the “Decomposition efficiency … in soymilk” value (pH11.6, heat treatment of enzyme: no, reaction time 6 h) was 52.3% and the “Decomposition efficiency … in soymilk” value (pH11.6, heat treatment of enzyme: yes, reaction time 6 h) was 9.3%.
